Measurements: US9181234B2, “Antibacterial compounds” (priority 2010, dated 2015)
Converted amounts (≈) assume the structure as drawn.

Assays:
[1] = system: Staphylococcus aureus (Isolate ID ATCC 29213); assay: Antibacterial activity, MIC, S. aureus; type: cell-based; conditions: Staphylococcus aureus, ATCC29213, Gram positive strain; broth microdilution or agar dilution
Summary of the method: (§1)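 CLSI-guided dilution susceptibility testing (broth or agar) gave the MIC for each strain.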

physchem = conditions: kinetic from dmso stock
Summary of the method: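 DMSO doubling dilutions were diluted twenty-fold into 100 mM citrate (pH 4), PBS (pH 7.4) or carbonate-bicarbonate (pH 9). After 24 h equilibration at room temperature, absorbance was read at 620 nm. The reported value is the highest concentration without measurable precipitate.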

[2] = system: Haemophilus influenzae (Isolate ID ATCC 49247); assay: Antibacterial activity, MIC, H. influenzae; type: cell-based; conditions: Haemophilus influenzae, ATCC49247; Gram negative strain; broth microdilution or agar dilution
Summary of the method: as §1

[3] = system: Enterococcus faecalis (Isolate ID ATCC 29212); assay: Antibacterial activity, MIC, E. faecalis; type: cell-based; conditions: Enterococcus faecalis, ATCC29212; Gram positive strain; broth microdilution or agar dilution
Summary of the method: as §1

[4] = system: Streptococcus pyogenes (Isolate ID ATCC 51339); assay: Antibacterial activity, MIC, S. pyogenes; type: cell-based; conditions: Streptococcus pyogenes, ATCC51339, Gram positive strain; broth microdilution or agar dilution
Summary of the method: as §1

[5] = pH 7.4, aqueous buffer, Max Solubility
[6] = pH 7.4, aqueous buffer, Solubility (pH 7.4)
[7] = pH 7.4, aqueous buffer, Solubility Range
[8] = pH 7.4, aqueous buffer, Solubility Range (maximum solubility)
[9] = pH 9, aqueous buffer, Max Solubility
[10] = pH 9, aqueous buffer, Solubility Range (maximum solubility)

| SMILES | MIC [1] [µg/mL] | solubility at 24 h (physchem; [5]) [µg/mL] | solubility at 24 h (physchem; [6]) [µg/mL] | solubility at 24 h (physchem; [7]) [µg/mL] | solubility at 24 h (physchem; [8]) [µg/mL] | MIC [2] [µg/mL] | MIC [3] [µg/mL] | MIC [4] [µg/mL] | solubility at 24 h (physchem; [9]) [µg/mL] | solubility at 24 h (physchem; [10]) [µg/mL] |
| --- | --- | --- | --- | --- | --- | --- | --- | --- | --- | --- |
| CCNC(=O)Nc1nc2cc(-c3cnc(N4CCC(C)(C(=O)O)CC4)nc3)cc(C#CC3CCCC3)c2s1 [Compound 150] | 0.25 to 1 (≈ 0.469 to 1.88 µM) | ≥ 800 | ≥ 800 | > 800 | > 800 | > 16 | ≤ 0.25 | > 16 |  |  |
| CCNC(=O)Nc1nc2cc(-c3cnc(N4CCC(C)(C(=O)O)CC4)nc3)cc(C#Cc3ccncc3)c2s1 [Compound 151] | 0.25 to 1 (≈ 0.462 to 1.85 µM) |  | 400 (≈ 739 µM) | 400 to 800 (≈ 739 to 1480 µM) |  | 1 to 16 (≈ 1.85 to 29.5 µM) | ≤ 0.25 | 0.25 to 1 (≈ 0.462 to 1.85 µM) | ≥ 800 | > 800 |
| CCNC(=O)Nc1nc2cc(-c3cnc(N4CCC(C)(C(=O)O)CC4)nc3)cc(C#Cc3cccc(OC)n3)c2s1 [Compound 152, 1-[5-[2-(ethylcarbamoylamino)-7-[2-(6-methoxy-2-pyridyl)ethynyl]-1,3-benzothiazol-5-yl]pyrimidin-2-yl]-4-methyl-piperidine-4-carboxylic acid] | ≤ 0.25 |  | 100 (≈ 175 µM) | 12.5 to 400 (≈ 21.9 to 700 µM) |  | 1 to 16 (≈ 1.75 to 28 µM) | ≤ 0.25 | ≤ 0.25 | ≥ 800 | > 800 |
| CCNC(=O)Nc1nc2cc(-c3cnc(N4CCC(C)(C(=O)O)CC4)nc3)cc(C#Cc3nnc(C)s3)c2s1 [Compound 153] | 0.25 to 1 (≈ 0.444 to 1.78 µM) |  | 100 (≈ 178 µM) | 12.5 to 400 (≈ 22.2 to 711 µM) |  | 1 to 16 (≈ 1.78 to 28.4 µM) | ≤ 0.25 | 0.25 to 1 (≈ 0.444 to 1.78 µM) | 400 (≈ 711 µM) | 400 to 800 (≈ 711 to 1420 µM) |
| CCNC(=O)Nc1nc2cc(-c3cnc(N4CCC(C)(C(=O)O)CC4)nc3)cc(C#Cc3ncccn3)c2s1 [Compound 154] | 1 to 16 (≈ 1.84 to 29.5 µM) |  | 200 (≈ 369 µM) | 12.5 to 400 (≈ 23 to 737 µM) |  | 1 to 16 (≈ 1.84 to 29.5 µM) | ≤ 0.25 | 0.25 to 1 (≈ 0.461 to 1.84 µM) | 400 (≈ 737 µM) | 400 to 800 (≈ 737 to 1470 µM) |
| CCNC(=O)Nc1nc2cc(-c3cnc(N4CCC(C)(C(=O)O)CC4)nc3)cc(C#Cc3ccncn3)c2s1 [Compound 155] | 1 to 16 (≈ 1.84 to 29.5 µM) |  | 400 (≈ 737 µM) | 400 to 800 (≈ 737 to 1470 µM) |  | 1 to 16 (≈ 1.84 to 29.5 µM) | ≤ 0.25 | 0.25 to 1 (≈ 0.461 to 1.84 µM) | ≥ 800 | > 800 |
| CCNC(=O)Nc1nc2cc(-c3cnc(N4CCC(C)(C(=O)O)CC4)nc3)cc(C#Cc3nccs3)c2s1 [Compound 156] | ≤ 0.25 | ≥ 800 | ≥ 800 | > 800 | > 800 | 1 to 16 (≈ 1.83 to 29.2 µM) | ≤ 0.25 | ≤ 0.25 |  |  |
| CCNC(=O)Nc1nc2cc(-c3cnc(N4CCC(C)(C(=O)O)CC4)nc3)cc(C#Cc3cnccn3)c2s1 [Compound 157] | ≤ 0.25 | ≥ 800 | ≥ 800 | > 800 | > 800 | 0.25 to 1 (≈ 0.461 to 1.84 µM) | ≤ 0.25 | ≤ 0.25 |  |  |

More lines, now with the values ahead:

| MIC [1] [µg/mL] | solubility at 24 h (physchem; [5]) [µg/mL] | solubility at 24 h (physchem; [6]) [µg/mL] | solubility at 24 h (physchem; [7]) [µg/mL] | solubility at 24 h (physchem; [8]) [µg/mL] | MIC [2] [µg/mL] | MIC [3] [µg/mL] | MIC [4] [µg/mL] | solubility at 24 h (physchem; [9]) [µg/mL] | solubility at 24 h (physchem; [10]) [µg/mL] | SMILES |
| --- | --- | --- | --- | --- | --- | --- | --- | --- | --- | --- |
| 1 to 16 (≈ 1.88 to 30.1 µM) | ≥ 800 | ≥ 800 | > 800 | > 800 | 1 to 16 (≈ 1.88 to 30.1 µM) | 1 to 16 (≈ 1.88 to 30.1 µM) | 1 to 16 (≈ 1.88 to 30.1 µM) |  |  | CCNC(=O)Nc1nc2cc(-c3cnc(CN4CCC(C)(C(=O)O)CC4)nc3)cc(-c3ccccn3)c2s1 [Compound 160] |
| 0.25 to 1 (≈ 0.496 to 1.99 µM) | ≥ 800 | ≥ 800 | > 800 | > 800 | 0.25 to 1 (≈ 0.496 to 1.99 µM) | ≤ 0.25 | ≤ 0.25 |  |  | CCNC(=O)Nc1nc2cc(-c3cnc(N4CCCC4(C)C(=O)O)nc3)cc(-c3ccccn3)c2s1 (centres unmarked) [Compound 163] |
| 1 to 16 (≈ 1.79 to 28.7 µM) |  | ≥ 800 | > 800 |  | > 16 | 1 to 16 (≈ 1.79 to 28.7 µM) | 0.25 to 1 (≈ 0.448 to 1.79 µM) |  |  | CCNC(=O)Nc1nc2cc(-c3cnc(N4CCC(C(=O)O)(C(F)(F)F)C4)nc3)cc(-c3ccccn3)c2s1 (centres unmarked) [Compound 164] |
| ≤ 0.25 |  | ≥ 800 | > 800 |  | 1 to 16 (≈ 1.89 to 30.2 µM) | ≤ 0.25 | ≤ 0.25 |  |  | CCNC(=O)Nc1nc2cc(-c3cnc(N4CC5CCCC5(C(=O)O)C4)nc3)cc(-c3ccccn3)c2s1 (centres unmarked) [Compound 165] |
